This is an account of results in paper PMC11173485, “Connecting GSK-3β Inhibitory Activity with IKK-β or ROCK-1 Inhibition to Target Tau Aggregation and Neuroinflammation in Alzheimer’s Disease—Discovery, In Vitro and In Cellulo Activity of Thiazole-Based Inhibitors” (Molecules, 2024).

Like-named read-outs stand apart in the source and are kept apart here.

One experiment addresses GSK-3β (Homo sapiens, UniProt P49841). Description: ADP-Glo kinase assay, GSK-3β inhibition. It is filed as biochemical. Set-up: purchased Promega. The settings on record: for IC50: mean ± SEM, ATP 25 µM. The text has this:
(§1) We evaluated the inhibitory activity of the final compounds against GSK-3β, IKK-β, and ROCK-1 kinases using the commercially available ADP-Glo™ kinase assay. The method was based on the measurement of luminescence that correlates with kinase activity. […] The latter are inhibitors of the kinases of interest and were integral to the design of our studies.
Promega’s Kinase Enzyme Systems (Promega; Madison, WI, USA) were used to determine the activities of the tested compounds against the human recombinant kinases GSK-3β, IKK- β, and ROCK-1. The assays were performed according to the provided manufacturer’s instruction, based on the optimized conditions of the enzymatic reactions, using the low-volume, white polystyrene, 384-well plates. The ADP-Glo™ Assay (Promega; Madison, WI, USA) was used for bioluminescent detection of the kinase activity. Stock solutions of the tested compounds in DMSO (1mM) were diluted with the Kinase Assay Buffer before use (40 mM Tris, pH 7.5, enriched with 50 µM dithiothreitol; DTT), giving the final desired concentrations. The kinase enzymes, substrates, and ATP solutions were also diluted with the assay buffer prior to use. The GSK-3β, IKK-β, and ROCK-1 substrates were derived from human muscle glycogen synthase 1, human IkBA, and human 40S ribosomal protein S6, respectively. The assay procedure was as follows: At first, the appropriate kinase enzyme (GSK-3β: 10 ng per well; IKK-β: 45 ng per well; ROCK-1: 24 ng per well) was incubated with the tested sample (10 µM in well) for 5 min. The DMSO solution (1% in well) was used in the blank samples instead of the tested inhibitors. After the incubation period, ATP (25 µM per well in the case of GSK-3β and IKK-β kinases; 5 µM per well in the case of ROCK-1 kinase) and an appropriate enzyme substrate (0.2 µg/µL in well) were added to start the enzymatic reaction. The reaction mixture was kept at room temperature for 1 h; then, the ADP-Glo™ reagent was added, to terminate the kinase reaction and deplete any remaining ATP. After 40 min, a second reagent (Kinase Detection Reagent) was applied to convert the obtained ADP to ATP and to generate light from the newly synthesized ATP using a luciferase/luciferin reaction. The mixture was incubated for another 30 min at room temperature before the luminescence was measured. The calculations of the percent of kinases’ inhibition by tested compounds were based on the equation 100 − (S/B) × 100; S and B are the enzyme activities with and without the tested sample, respectively. […] Each compound was evaluated in two independent experiments, with every data point collected in duplicate.
On the technique in general: ADP-Glo first removes unused ATP, then detects ADP through luciferase.

In a further experiment the target is T1, ROCK-1 (Homo sapiens, UniProt Q13464).
T1 construct: purchased Promega
T1 sequence (Q13464 whole entry): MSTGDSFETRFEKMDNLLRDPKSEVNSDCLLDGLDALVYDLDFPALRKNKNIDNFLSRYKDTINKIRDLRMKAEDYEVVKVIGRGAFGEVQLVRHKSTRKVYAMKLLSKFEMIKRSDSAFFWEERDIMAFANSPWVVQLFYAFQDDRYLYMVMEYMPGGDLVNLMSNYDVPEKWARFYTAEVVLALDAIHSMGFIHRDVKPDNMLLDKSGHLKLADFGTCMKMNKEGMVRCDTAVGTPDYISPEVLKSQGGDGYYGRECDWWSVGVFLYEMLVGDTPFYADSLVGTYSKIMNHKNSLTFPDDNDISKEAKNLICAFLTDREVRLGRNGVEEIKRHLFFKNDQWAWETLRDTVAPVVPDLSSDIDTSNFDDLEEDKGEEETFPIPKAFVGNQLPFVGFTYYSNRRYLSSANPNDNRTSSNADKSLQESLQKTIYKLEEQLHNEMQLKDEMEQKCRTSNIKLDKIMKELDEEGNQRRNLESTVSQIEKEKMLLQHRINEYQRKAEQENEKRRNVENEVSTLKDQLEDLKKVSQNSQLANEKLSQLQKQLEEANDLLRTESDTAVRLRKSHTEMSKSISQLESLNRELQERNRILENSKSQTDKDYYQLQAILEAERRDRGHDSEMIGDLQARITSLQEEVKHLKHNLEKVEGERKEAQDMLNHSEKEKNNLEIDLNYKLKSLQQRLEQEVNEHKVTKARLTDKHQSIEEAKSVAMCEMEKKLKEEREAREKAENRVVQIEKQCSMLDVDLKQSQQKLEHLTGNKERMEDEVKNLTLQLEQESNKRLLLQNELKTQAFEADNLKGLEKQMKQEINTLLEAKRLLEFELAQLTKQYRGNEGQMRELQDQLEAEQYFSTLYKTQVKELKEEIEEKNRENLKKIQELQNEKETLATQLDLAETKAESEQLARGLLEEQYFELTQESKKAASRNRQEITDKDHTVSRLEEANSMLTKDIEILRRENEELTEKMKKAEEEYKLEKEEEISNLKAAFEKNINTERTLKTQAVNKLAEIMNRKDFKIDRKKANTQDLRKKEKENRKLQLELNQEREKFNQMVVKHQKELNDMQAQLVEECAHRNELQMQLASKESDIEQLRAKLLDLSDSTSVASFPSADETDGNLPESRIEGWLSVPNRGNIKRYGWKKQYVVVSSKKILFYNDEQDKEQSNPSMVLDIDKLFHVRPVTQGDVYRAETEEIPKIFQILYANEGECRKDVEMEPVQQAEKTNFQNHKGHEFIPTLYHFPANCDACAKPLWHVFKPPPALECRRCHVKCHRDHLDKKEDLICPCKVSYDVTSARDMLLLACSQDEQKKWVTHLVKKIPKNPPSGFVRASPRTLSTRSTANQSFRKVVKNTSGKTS
Description: ADP-Glo kinase assay, ROCK-1 inhibition. In kind it is biochemical. The settings on record: for inhibition at 10 µM: read-out: % inh. at 10 µM ROCK-1.
From the text: as §1
Promega’s Kinase Enzyme Systems (Promega; Madison, WI, USA) were used to determine the activities of the tested compounds against the human recombinant kinases GSK-3β, IKK- β, and ROCK-1. The assays were performed according to the provided manufacturer’s instruction, based on the optimized conditions of the enzymatic reactions, using the low-volume, white polystyrene, 384-well plates. The ADP-Glo™ Assay (Promega; Madison, WI, USA) was used for bioluminescent detection of the kinase activity. Stock solutions of the tested compounds in DMSO (1mM) were diluted with the Kinase Assay Buffer before use (40 mM Tris, pH 7.5, enriched with 50 µM dithiothreitol; DTT), giving the final desired concentrations. The kinase enzymes, substrates, and ATP solutions were also diluted with the assay buffer prior to use. The GSK-3β, IKK-β, and ROCK-1 substrates were derived from human muscle glycogen synthase 1, human IkBA, and human 40S ribosomal protein S6, respectively. […] The DMSO solution (1% in well) was used in the blank samples instead of the tested inhibitors. After the incubation period, ATP (25 µM per well in the case of GSK-3β and IKK-β kinases; 5 µM per well in the case of ROCK-1 kinase) and an appropriate enzyme substrate (0.2 µg/µL in well) were added to start the enzymatic reaction. The reaction mixture was kept at room temperature for 1 h; then, the ADP-Glo™ reagent was added, to terminate the kinase reaction and deplete any remaining ATP. After 40 min, a second reagent (Kinase Detection Reagent) was applied to convert the obtained ADP to ATP and to generate light from the newly synthesized ATP using a luciferase/luciferin reaction. The mixture was incubated for another 30 min at room temperature before the luminescence was measured. The calculations of the percent of kinases’ inhibition by tested compounds were based on the equation 100 − (S/B) × 100; S and B are the enzyme activities with and without the tested sample, respectively. […]. IC50 results were obtained using nonlinear regression (GraphPad Prism 9; GraphPad Software, San Diego, CA, USA) by plotting the residual enzyme activities against the applied inhibitor concentration. Each compound was evaluated in two independent experiments, with every data point collected in duplicate.

Chain of GSK-3β (P49841 whole entry): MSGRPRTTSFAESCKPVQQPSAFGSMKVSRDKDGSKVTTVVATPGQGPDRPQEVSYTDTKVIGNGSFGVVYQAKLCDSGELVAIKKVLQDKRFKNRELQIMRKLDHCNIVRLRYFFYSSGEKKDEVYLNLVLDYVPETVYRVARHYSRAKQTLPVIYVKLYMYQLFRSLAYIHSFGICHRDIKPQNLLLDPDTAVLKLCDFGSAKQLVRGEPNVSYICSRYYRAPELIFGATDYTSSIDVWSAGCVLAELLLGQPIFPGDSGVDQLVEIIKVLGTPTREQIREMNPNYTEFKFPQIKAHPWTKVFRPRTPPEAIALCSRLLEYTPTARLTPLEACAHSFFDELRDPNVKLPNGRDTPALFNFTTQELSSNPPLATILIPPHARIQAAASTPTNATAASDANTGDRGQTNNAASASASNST

In general, IC50 refers to the concentration that inhibits the measured activity by half. Low values mean higher potency, high ones lower potency. `CC(C)C(=O)Nc1cc(-c2cc3c(s2)C(=O)NC(C)(C)N3)ccn1` [Compound 39, N-(4-(2,2-Dimethyl-4-oxo-1,2,3,4-tetrahydrothieno [3,2-d]pyrimidin-6-yl)pyridin-2-yl)isobutyramide] had an IC50 at GSK-3β of 12 nM. Further, at ROCK-1 (mean ± SD), the inhibition at 10 µM was 32%.

As to `CC1(C)NC(=O)c2sc(-c3ccnc(NC(=O)C4CC4)c3)cc2N1` [Compound 40, N-(4-(2,2-Dimethyl-4-oxo-1,2,3,4-tetrahydrothieno [3,2-d]pyrimidin-6-yl)pyridin-2-yl)-cyclopropanecarboxamide], the IC50 was 10 nM against GSK-3β and 1760 ± 109 nM on ROCK-1 (mean ± SEM, ATP 5 µM).

In the case of `CC1(C)NC(=O)c2sc(-c3ccnc(NC(=O)C4CCC4)c3)cc2N1` [Compound 41, N-(4-(2,2-Dimethyl-4-oxo-1,2,3,4-tetrahydrothieno [3,2-d]pyrimidin-6-yl)pyridin-2-yl)-cyclobutanecarboxamide], the IC50 on GSK-3β was 32 ± 1 nM. Besides, the inhibition at 10 µM on ROCK-1 (mean ± SD) came to 48%.

As to `CC(C)C(=O)Nc1cc(-c2cc(NC(N)=O)c(C(N)=O)s2)ccn1` [Compound 48, 5-(2-Isobutyramidopyridin-4-yl)-3-ureidothiophene-2-carboxamide], the IC50 against GSK-3β amounted to 22 nM. Besides, at ROCK-1 (mean ± SD), the inhibition at 10 µM was less than 10%.

At GSK-3β, `NC(=O)Nc1cc(-c2ccnc(NC(=O)C3CC3)c2)sc1C(N)=O` [Compound 49, 5-(2-(Cyclopropanecarboxamido)pyridin-4-yl)-3-ureidothiophene-2-carboxamide] showed an IC50 of 20 nM.

The compound `NC(=O)Nc1cc(-c2ccnc(NC(=O)C3CCC3)c2)sc1C(N)=O` [Compound 50, 5-(2-(Cyclobutanecarboxamido)pyridin-4-yl)-3-ureidothiophene-2-carboxamide] displayed an IC50 against GSK-3β of 34 nM. In addition, on ROCK-1 (1 μM (footnote), mean ± SD, read-out: % inh. ROCK-1, tested at inhibitor screening concentration of 1 μM), the inhibition at 1 µM is less than 10%.

As for `NC(=O)Nc1cc(-c2cccc(NC(=O)C3CC3)c2)sc1C(N)=O` [Compound 58, 5-(3-(Cyclopropanecarboxamido)phenyl)-3-ureidothiophene-2-carboxamide], the inhibition at 10 µM at GSK-3β (10 µM, mean ± SD, read-out: % inh. at 10 µM GSK-3β) is 36%.

In the case of `O=C1NC2(CCCC2)Nc2cc(-c3ccnc(NC(=O)C4CC4)c3)sc21` [Compound 60, N-(4-(4’-Oxo-3’,4’-dihydro-1’H-spiro[cyclopentane-1,2’-thieno [3,2-d]pyrimidin]-6’-yl)pyridin-2-yl)cyclopropanecarboxamide], the IC50 against GSK-3β was 10 nM; at ROCK-1 (mean ± SEM, ATP 5 µM), 1360 ± 79 nM.

Regarding `O=C1NC2(CCOC2)Nc2cc(-c3ccnc(NC(=O)C4CC4)c3)sc21` (stereo not drawn) [Compound 62, N-(4-(4′-Oxo-3′,4,4′,5-tetrahydro-1′H,2H-spiro[furan-3,2′-thieno [3,2-d]pyrimidin]-6′-yl)pyridin-2-yl)cyclopropanecarboxamide], the IC50 at GSK-3β came to 8 nM; at ROCK-1 it was 2300 nM; on ROCK-1 (mean ± SEM, ATP 5 µM) it was 2310 ± 131 nM.

In turn, `COc1nc(-c2ccnc(NC(=O)C3CC3)c2)sc1C(N)=O` [II, reference compound] came in with an IC50 on GSK-3β of 5 nM.
